Laboratory results published in ChEMBL document CHEMBL5096207, “Identification of a Hydroxypyrimidinone Compound (21) as a Potent APJ Receptor Agonist for the Potential Treatment of Heart Failure” (J Med Chem, 2021).

What was measured:
[1] = AUC (0 to 24hrs) in dog at 1 mg/kg, po or 1 mg/kg, iv by LC/MS/MS analysis; type: ADME, organism-based, Canis lupus familiaris; design: dose 1 mg/kg, route po; conditions: in vivo
[2] = Drug excretion in Sprague-Dawley rat urine at 1 mg/kg, iv; type: ADME, organism-based; conditions: read-out: Drug excretion
[3] = Toxicity in Sprague-Dawley rat assessed as hemodynamic reponse by measuring increase in heart rate at 0.001 to 0.1 mg/kg/min, iv infusion administered for 15 mins by PV-loop based analysis; type: organism-based; conditions: in vivo, dose 0.001-0.1 mg/kg/min
[4] = Cmax in dog at 1 mg/kg, po or 1 mg/kg, iv by LC/MS/MS analysis; type: ADME, organism-based, Canis lupus familiaris; design: dose 1 mg/kg, route po; conditions: in vivo
[5] = Oral bioavailability in overnight fasted Sprague-Dawley rat at 1 mg/kg measured upto 48 hrs by LC/MS/MS analysis; type: ADME, organism-based; conditions: in vivo
[6] = Cmax in overnight fasted cynomolgus monkey at 3 mg/kg, po or 1 mg/kg, iv measured upto 72 hrs by LC/MS/MS analysis; type: ADME, organism-based, Macaca fascicularis; design: time < 72 hrs, dose 3 mg/kg, route po; conditions: in vivo
[7] = Volume of distribution at steady state in dog at 1 mg/kg, po or 1 mg/kg, iv by LC/MS/MS analysis; type: ADME, organism-based, Canis lupus familiaris; conditions: in vivo
[8] = AUC (0 to 24hrs) in overnight fasted Sprague-Dawley rat at 1 mg/kg, po or 1 mg/kg, iv measured upto 48 hrs by LC/MS/MS analysis; type: ADME, organism-based; design: time < 48 hrs, dose 1 mg/kg, route po; conditions: in vivo
[9] = Volume of distribution in overnight fasted Sprague-Dawley rat at 1 mg/kg, po or 1 mg/kg, iv measured upto 48 hrs by LC/MS/MS analysis; type: ADME, organism-based; conditions: in vivo
[10] = AUC (0 to 24hrs) in overnight fasted cynomolgus monkey at 3 mg/kg, po or 1 mg/kg, iv measured upto 72 hrs by LC/MS/MS analysis; type: ADME, organism-based, Macaca fascicularis; design: time < 72 hrs, dose 3 mg/kg, route po; conditions: in vivo
[11] = Cmax in overnight fasted Sprague-Dawley rat at 1 mg/kg, po or 1 mg/kg, iv measured upto 48 hrs by LC/MS/MS analysis; type: ADME, organism-based; design: time < 48 hrs, dose 1 mg/kg, route po; conditions: in vivo
[12] = Drug excretion in dog urine at 1 mg/kg, iv; type: ADME, organism-based, Canis lupus familiaris; conditions: read-out: Drug excretion
[13] = Volume of distribution at steady state in overnight fasted cynomolgus monkey at 3 mg/kg, po or 1 mg/kg, iv measured upto 72 hrs by LC/MS/MS analysis; type: ADME, organism-based, Macaca fascicularis; conditions: in vivo
[14] = Oral bioavailability in overnight fasted cynomolgus monkey at 3 mg/kg measured upto 72 hrs by LC/MS/MS analysis; type: ADME, organism-based, Macaca fascicularis; conditions: in vivo
[15] = Oral bioavailability in dog at 1 mg/kg by LC/MS/MS analysis; type: ADME, organism-based, Canis lupus familiaris; conditions: in vivo
Apelin receptor = molecular target: T1, Apelin receptor (Homo sapiens, UniProt P35414); assay: Agonist activity at human APJ expressed in HEK293 cells assessed as inhibition of forskolin-stimulated cAMP production incubated for 60 mins by fluorescence based analysis
T1 sequence (P35414 whole entry): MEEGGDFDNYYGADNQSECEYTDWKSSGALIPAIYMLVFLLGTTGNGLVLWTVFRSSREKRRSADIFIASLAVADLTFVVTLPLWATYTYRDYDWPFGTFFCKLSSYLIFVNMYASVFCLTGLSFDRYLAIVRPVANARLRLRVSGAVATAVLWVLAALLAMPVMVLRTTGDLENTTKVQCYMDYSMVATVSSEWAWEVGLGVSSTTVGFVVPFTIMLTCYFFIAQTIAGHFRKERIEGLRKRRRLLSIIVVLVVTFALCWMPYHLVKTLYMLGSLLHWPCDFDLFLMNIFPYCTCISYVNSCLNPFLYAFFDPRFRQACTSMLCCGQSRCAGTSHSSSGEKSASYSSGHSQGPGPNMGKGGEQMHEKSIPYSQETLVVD

SMILES	AUC(0-t) [1]	dose excreted [2]	Activity [3]	Cmax [4]	bioavailability [5]	Cmax [6]	Vdss [7]	AUC(0-t) at 48 h [8]	Vdss [9]	AUC(0-t) at 72 h [10]	Cmax [11]	dose excreted [12]	Vdss [13]	bioavailability [14]	bioavailability [15]	EC50 (Apelin receptor)
CCc1cccc(CC)c1-n1c(-c2ccn(C)n2)nc(=O)c(C(=O)N2CC[C@@H](c3ncc(Cl)cc3F)C2)c1O	14.2 µM·h	4%	Non-Toxic	6500 nM	54%	1400 nM	0.2 L/kg	3.7 µM·h	1.6 L/kg	2.5 µM·h	2200 nM	< 4%	0.2 L/kg	27%	76%	–
CCOCc1nc(=O)c(C(=O)N2CC[C@H](c3ccccc3)C2)c(O)n1-c1c(OC)cccc1OC	–	–	–	–	–	–	–	–	–	–	–	–	–	–	–	0.4 nM
CC(CCc1ccc(O)cc1)NCCc1ccc(O)c(O)c1 (configuration not stated) [DOBUTAMINE]	–	–	Toxic	–	–	–	–	–	–	–	–	–	–	–	–	–
